# According to the supplement of paper PMC10331698:
# ± gives the standard deviation of the averaged measurements.
# Tests used:
# [1] = compound: FC(F)(F)C(F)(F)C(F)(F)C(F)(F)CCI [1H,1H,2H,2H-Perfluorohexyl iodide]; assay: level (log10 ratio to DMSO vehicle control); higher = higher biomarker level / cell amount than vehicle control; conditions: in DMSO
# Experimental: (§1)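 BioMAP Diversity Plus panel of 12 human primary cell co-culture systems (3C, 4H, LPS, SAg, BT, BF4T, BE3C, CASM3C, HDF3CGF, KF3CT, MyoF, Mphg). Compounds were added 1 h before stimulation and left for 24 h (MyoF 48 h; BT 72 h for soluble read-outs or 6 d for IgG). Biomarkers were read by ELISA, cytotoxicity by SRB, PBMC viability and proliferation by Alamar Blue. Each well value was divided by the mean of 8 DMSO control wells on the same plate and log10 transformed; duplicate blinded samples were tested at 4 concentrations.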
# Perfluoropinacol = compound: OC(C(F)(F)F)(C(F)(F)F)C(O)(C(F)(F)F)C(F)(F)F [Perfluoropinacol]; assay: as above; conditions: in DMSO
# Experimental: as §1
Test System,level (log10) ([1]; 6700 nM),level (log10) ([1]; 20000 nM),level (log10) ([1]; 60000 nM),level (log10) (Perfluoropinacol; 6700 nM),level (log10) (Perfluoropinacol; 20000 nM)
BF4T:CCL2/MCP-1,0.013 ± 0.059,0.026 ± 0.065,0.0295 ± 0.13,0.0435 ± 0.032,-0.0175 ± 0.015
LPS:CXCL8/IL-8,0.008 ± 0.034,0.021 ± 0.033,0.0375 ± 0.057,-0.003 ± 0.0028,-0.0315 ± 0.0021
4H:CD87/uPAR,-0.0115 ± 0.0021,-0.0245 ± 0.022,-0.0255 ± 0.0064,-0.117 ± 0.022,-0.226 ± 0.029
BF4T:uPA,-0.0205 ± 0.0021,-0.0145 ± 0.013,0.0115 ± 0.035,-0.0305 ± 0.019,-0.0365 ± 0.0064
3C:Proliferation,-0.0115 ± 0.0064,-0.051 ± 0.064,-0.047 ± 0.023,-0.151 ± 0.0028,-0.441 ± 0.086
BF4T:CXCL8/IL-8,0.0135 ± 0.025,0.0195 ± 0.00071,0.0355 ± 0.03,0.081 ± 0.024,0.0865 ± 0.032
LPS:sTNF-alpha,-0.003 ± 0.12,0.0385 ± 0.069,0.088 ± 0.071,-0.0005 ± 0.025,0.008 ± 0.03
LPS:CD69,0 ± 0.013,-0.008 ± 0.0071,0.0085 ± 0.011,-0.105 ± 0.063,-0.192 ± 0.064
LPS:M-CSF,0.002 ± 0.0042,0 ± 0.0099,-0.0055 ± 0.028,0.0135 ± 0.015,-0.1085 ± 0.00071
3C:CD87/uPAR,0.0035 ± 0.013,-0.005 ± 0.0071,0.0085 ± 0.025,-0.159 ± 0.04,-0.29 ± 0.022
4H:SRB,0.0015 ± 0.0035,-0.0045 ± 0.026,0.0005 ± 0.0078,-0.0345 ± 0.015,-0.13 ± 0.0078
BF4T:MMP-9,0.0085 ± 0.022,0.01 ± 0.047,0.02 ± 0.052,-0.0245 ± 0.00071,-0.0515 ± 0.0092
4H:VEGFR2,-0.029 ± 0.065,-0.058,-0.0605 ± 0.043,-0.02 ± 0.023,-0.138 ± 0.064
BT:sIL-6,0.0605 ± 0.036,0.0075 ± 0.0064,-0.0525 ± 0.00071,-0.073 ± 0.051,-0.0655 ± 0.019
SAg:CD38,0.009 ± 0.021,-0.007 ± 0.0071,-0.005 ± 0.031,-0.012 ± 0.021,-0.113 ± 0.023
BE3C:CXCL11/I-TAC,-0.001 ± 0.0014,0.0005 ± 0.0035,0.005 ± 0.0099,0.0435 ± 0.00071,0.0115 ± 0.021
SAg:SRB,0.0005 ± 0.0064,-0.0005 ± 0.005,0.0035 ± 0.0078,-0.0285 ± 0.0078,-0.123 ± 0.0021
BF4T:PAI-I,0.0075 ± 0.0078,0.008 ± 0.018,0.01 ± 0.038,-0.0315 ± 0.0035,-0.0845 ± 0.0064
BF4T:tPA,-0.0025 ± 0.0092,0.005 ± 0.0042,0.0475 ± 0.053,-0.028 ± 0.011,0.032 ± 0.014
3C:CXCL8/IL-8,-0.0135 ± 0.018,-0.007 ± 0.014,0.0495 ± 0.00071,0.0215 ± 0.012,-0.0255 ± 0.026
LPS:CD141/Thrombomodulin,0.0185 ± 0.023,0.011 ± 0.038,-0.005 ± 0.027,-0.106 ± 0.028,-0.118 ± 0.005
BE3C:IL-1alpha,0.015 ± 0.017,0.024 ± 0.0042,0.045 ± 0.023,-0.041 ± 0.021,-0.093 ± 0.0071
LPS:sPGE2,-0.004 ± 0.014,-0.002 ± 0.017,0.0245 ± 0.03,0.086 ± 0.038,0.182 ± 0.015

Test System,level (log10) ([1]; 6700 nM),level (log10) ([1]; 20000 nM),level (log10) ([1]; 60000 nM),level (log10) (Perfluoropinacol; 6700 nM),level (log10) (Perfluoropinacol; 20000 nM)
BF4T:CD90,-0.011 ± 0.0085,-0.018 ± 0.021,-0.0075 ± 0.005,-0.015 ± 0.017,-0.024 ± 0.0071
SAg:CCL2/MCP-1,-0.0075 ± 0.015,0.004 ± 0.0014,-0.015 ± 0.018,0.078 ± 0.018,-0.096 ± 0.0085
BF4T:MMP-3,0.018 ± 0.04,0.015 ± 0.047,0.049 ± 0.078,-0.013 ± 0.04,-0.008 ± 0.0057
4H:CCL2/MCP-1,0.0175 ± 0.021,-0.008 ± 0.016,0.0195 ± 0.042,-0.058 ± 0.023,-0.168 ± 0.025
LPS:CD142/Tissue Factor,0.0165 ± 0.0035,0.0275 ± 0.018,0.055 ± 0.051,-0.0795 ± 0.0035,-0.038 ± 0.02
BF4T:CCL26/Eotaxin-3,-0.032 ± 0.017,-0.0525 ± 0.036,-0.098 ± 0.073,-0.108 ± 0.0042,-0.217 ± 0.0057
4H:CD62P/P-selectin,-0.001 ± 0.011,0.023 ± 0.011,0.0135 ± 0.012,-0.0165 ± 0.022,-0.217 ± 0.06
3C:SRB,0.0005 ± 0.018,0.004 ± 0.013,-0.006 ± 0.0028,-0.0665 ± 0.013,-0.188 ± 0.0028
SAg:CD62E/E-Selectin,-0.0095 ± 0.005,-0.014 ± 0.014,-0.008 ± 0.018,0.008 ± 0.0071,-0.15 ± 0.0021
SAg:CD69,0.0135 ± 0.015,-0.003 ± 0.0014,-0.0125 ± 0.005,-0.039 ± 0.017,-0.19 ± 0.033
LPS:CD40,0.0065 ± 0.0021,-0.019 ± 0.02,-0.0095 ± 0.025,-0.0285 ± 0.073,-0.16 ± 0.03
BE3C:CD87/uPAR,-0.0105 ± 0.019,-0.011,0.0285 ± 0.011,-0.0675 ± 0.019,-0.231 ± 0.016
SAg:CXCL9/MIG,-0.0015 ± 0.005,-0.006 ± 0.0085,0.009 ± 0.0028,-0.002 ± 0.0028,-0.005 ± 0.0014
BF4T:CD106/VCAM-1,-0.0245 ± 0.0021,-0.044 ± 0.025,-0.0065 ± 0.086,-0.0455 ± 0.0021,-0.096
BT:sIL-17A,0.0075 ± 0.12,0.028 ± 0.011,-0.249 ± 0.1,-0.177 ± 0.11,-0.642 ± 0.061
SAg:Proliferation,-0.0205 ± 0.0078,-0.043 ± 0.013,-0.155 ± 0.014,0.0035 ± 0.093,-0.163 ± 0.021
BF4T:SRB,-0.009 ± 0.0028,-0.0055 ± 0.005,-0.0035 ± 0.0078,-0.0135 ± 0.0021,-0.031 ± 0.0014
BF4T:IL-1alpha,0.001 ± 0.0071,0.0085 ± 0.0092,0.019 ± 0.024,0.0025 ± 0.012,-0.025 ± 0.0057
LPS:IL-1alpha,-0.0045 ± 0.032,-0.034 ± 0.047,0.051 ± 0.044,0.0305 ± 0.011,0.041 ± 0.0014
4H:CCL26/Eotaxin-3,-0.0145 ± 0.032,-0.06 ± 0.013,-0.1 ± 0.0042,-0.03 ± 0.048,-0.179 ± 0.037
BT:Secreted IgG,-0.012 ± 0.016,-0.016 ± 0.0071,-0.002 ± 0.014,-0.322 ± 0.02,-1.36
3C:CXCL9/MIG,0.0045 ± 0.00071,-0.0085 ± 0.005,0.007 ± 0.0057,-0.005 ± 0.013,-0.014 ± 0.0085
BF4T:MMP-1,0.007 ± 0.024,0.0105 ± 0.029,0.015 ± 0.051,-0.0245 ± 0.00071,-0.0165 ± 0.0035

Test System,level (log10) ([1]; 6700 nM),level (log10) ([1]; 20000 nM),level (log10) ([1]; 60000 nM),level (log10) (Perfluoropinacol; 6700 nM),level (log10) (Perfluoropinacol; 20000 nM)
LPS:CD62E/E-Selectin,0.0035 ± 0.022,-0.0105 ± 0.018,-0.0095 ± 0.012,0.003 ± 0.0085,-0.027 ± 0.028
BE3C:EGFR,0.011 ± 0.047,-0.0005 ± 0.046,-0.0275 ± 0.063,0.0065 ± 0.00071,-0.027 ± 0.0085
BE3C:HLA-DR,-0.0105 ± 0.0064,0 ± 0.0014,-0.005 ± 0.0042,-0.0145 ± 0.0064,-0.0565 ± 0.019
4H:CD106/VCAM-1,0.0045 ± 0.0021,-0.0125 ± 0.0092,-0.0525 ± 0.011,-0.043 ± 0.018,-0.22 ± 0.02
LPS:CCL2/MCP-1,-0.016 ± 0.0014,0.0055 ± 0.0078,-0.013 ± 0.024,0.0205 ± 0.00071,-0.103 ± 0.0078
BT:B cell Proliferation,-0.0105 ± 0.00071,-0.0085 ± 0.016,-0.0005 ± 0.032,-0.0065 ± 0.0064,-0.085 ± 0.034
LPS:CD106/VCAM-1,0.01,-0.0195 ± 0.005,-0.026 ± 0.016,0.0045 ± 0.013,-0.0825 ± 0.015
BE3C:CXCL9/MIG,0.006 ± 0.0085,0.002 ± 0.016,0.0165 ± 0.028,-0.0045 ± 0.015,0.002 ± 0.0071
BF4T:CD54/ICAM-1,-0.0025 ± 0.0035,-0.0095 ± 0.0021,-0.002 ± 0.0057,-0.0015 ± 0.011,-0.018 ± 0.0028
SAg:CD40,0.019 ± 0.013,0.012 ± 0.0014,-0.0185 ± 0.018,-0.021 ± 0.016,-0.146 ± 0.013
BT:sIL-2,0.0565 ± 0.029,-0.0065 ± 0.0021,-0.056 ± 0.057,0.107 ± 0.059,0.0335 ± 0.071
BF4T:Keratin 8/18,0.0015 ± 0.022,-0.0045 ± 0.005,0.003 ± 0.033,-0.013 ± 0.0099,-0.036 ± 0.0071
BE3C:CD54/ICAM-1,0.0035 ± 0.0035,0.004 ± 0.013,0.0105 ± 0.011,-0.003 ± 0.0085,-0.0095 ± 0.0035
BE3C:CXCL8/IL-8,0.0225 ± 0.0078,0.016 ± 0.025,0.0525 ± 0.057,-0.049 ± 0.0014,-0.203 ± 0.021
LPS:SRB,0.019 ± 0.023,0.0125 ± 0.035,0.007 ± 0.024,-0.0265 ± 0.0021,-0.151 ± 0.0064
BT:sTNF-alpha,-0.016 ± 0.085,-0.003 ± 0.0028,-0.036 ± 0.095,0.0425 ± 0.061,-0.146 ± 0.015
SAg:CXCL8/IL-8,0.012 ± 0.0042,-0.0035 ± 0.0092,-0.006 ± 0.058,0.0725 ± 0.029,-0.139 ± 0.041
SAg:PBMC Cytotoxicity,0.006 ± 0.03,-0.0025 ± 0.03,-0.093 ± 0.088,0.046 ± 0.033,0.0855 ± 0.0021
BE3C:CXCL10/IP-10,0.008 ± 0.0099,0.0015 ± 0.0092,0.001 ± 0.021,-0.0315 ± 0.0035,-0.118 ± 0.0071
3C:HLA-DR,-0.0005 ± 0.029,-0.035 ± 0.04,-0.0305 ± 0.04,-0.0405 ± 0.0035,-0.132 ± 0.028
BT:PBMC Cytotoxicity,-0.024 ± 0.0014,-0.042 ± 0.0099,-0.0045 ± 0.029,0.011 ± 0.017,-0.0095 ± 0.023
BT:sIL-17F,-0.0555 ± 0.04,-0.03 ± 0.021,-0.0755 ± 0.1,-0.063 ± 0.028,-0.23 ± 0.033
